Data on one molecule can be found in publication PMC10898118, “Biocatalytic cascade to polysaccharide amination” (Biotechnology for Biofuels and Bioproducts, 2024).

The test concerns the target T1, CvATA (Chromobacterium violaceum, UniProt Q7NWG4).
T1 construct: gene CV_2025; dimer
T1 sequence (Q7NWG4 1-459): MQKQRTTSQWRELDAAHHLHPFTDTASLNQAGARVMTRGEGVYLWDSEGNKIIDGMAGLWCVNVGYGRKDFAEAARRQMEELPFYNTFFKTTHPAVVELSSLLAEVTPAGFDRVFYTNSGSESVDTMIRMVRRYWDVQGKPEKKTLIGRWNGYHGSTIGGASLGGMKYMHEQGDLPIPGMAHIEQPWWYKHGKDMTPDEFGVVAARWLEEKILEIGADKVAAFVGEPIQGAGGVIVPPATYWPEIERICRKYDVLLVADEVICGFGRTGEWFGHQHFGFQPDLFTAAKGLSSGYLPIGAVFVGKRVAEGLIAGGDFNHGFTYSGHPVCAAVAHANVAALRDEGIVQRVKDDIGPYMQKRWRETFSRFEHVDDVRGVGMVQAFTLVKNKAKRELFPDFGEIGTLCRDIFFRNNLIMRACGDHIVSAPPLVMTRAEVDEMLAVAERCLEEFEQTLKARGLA
Nature of the test: acetophenone assay, UV […] nm. The test is classed as biochemical. The settings on record: 5 mM galactose pre-oxidized in situ by FgrGaOx (catalase, HRP), 5 mM (S)-1-phenylethylamine, 20 µM PLP, 50 mM HEPES pH 7.5, 37 °C.

`O=C[C@@H](O)[C@H](O)[C@H](O)[C@@H](O)C=O` [oxidized galactose]: the “acetophenone assay, UV 245 nm” value was “initial activity of CvATA on pyruvate and oxidized galactose”.
